According to patent US7576222B2, “Alkynyl-containing tryptophan derivative inhibitors of TACE/matrix metalloproteinase” (priority 2004, dated 2009):

Molecular target: T1, catalytic domain of the recombinant TACE protein (Homo sapiens, UniProt P78536)
T1 construct: The catalytic domain of the recombinant TACE protein was expressed and purified; made in house
Experiment: TACE FRET assay using TACE cat
Format: biochemical
Conditions: not given
Experimental: TACE FRET Assay Using TACE Cat
“K” is the IC50. Generally, “n” and “B” are floated, noting that n (Hill slope) should be close to 1 and B (background offset) to 0.
Pro-TNF-α substrate peptide Abz-[…]-Dpa (AnaSpec, San Jose, Calif., WARC-1) was prepared as a 2 mM stock solution in the TACE assay buffer (50 mM Tris-HCl, pH 7.4, 25 mM NaCl, 4% Glycerol, 0.005% Brij 35). The catalytic domain of the recombinant TACE protein was expressed and purified. The TACE protein (1 ug/ml) was pretreated with the inhibitors at various concentrations for 10 min. at room temperature. The reaction was initiated by the addition of the substrate peptide. […] The initial rate (slope) of the reaction was determined using a fluorescence plate reader (Molecular Devices, Spectra Max Gemini XS).

T1 sequence (P78536 223-474 limits assumed): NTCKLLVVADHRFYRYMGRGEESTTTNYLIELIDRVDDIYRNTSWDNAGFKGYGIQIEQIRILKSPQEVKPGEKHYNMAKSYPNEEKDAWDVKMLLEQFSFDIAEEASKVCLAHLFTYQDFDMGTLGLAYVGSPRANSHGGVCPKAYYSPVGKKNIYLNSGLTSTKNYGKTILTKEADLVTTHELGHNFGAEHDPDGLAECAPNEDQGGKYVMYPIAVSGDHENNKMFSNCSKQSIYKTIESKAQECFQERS

CC#CCOc1ccc(S(=O)(=O)N[C@@H](Cc2cn(CC3CCC3)c3ccc(OC)cc23)C(=O)O)cc1 [Example 69, N-{[4-(but-2-ynyloxy)phenyl]sulfonyl}-1-(cyclobutylmethyl)-5-methoxytryptophan] and CC#CCOc1ccc(S(=O)(=O)N[C@@H](Cc2cn(CC(C)C)c3ccc(OC)cc23)C(=O)O)cc1 [Example 67, N-{[4-(but-2-ynyloxy)phenyl]sulfonyl}-1-isobutyl-5-methoxytryptophan] are within 1.5-fold of each other in IC50: 1.19 µM for the first, 1.23 µM for the second.

Going from CC#CCOc1ccc(S(=O)(=O)N[C@@H](Cc2cn(Cc3cccc(OC)c3)c3ccc(OC)cc23)C(=O)O)cc1 [Example 52, N-{[4-(but-2-ynyloxy)phenyl]sulfonyl}-5-methoxy-1-(3-methoxybenzyl)tryptophan] to CC#CCOc1ccc(S(=O)(=O)N[C@@H](Cc2c(C)n(Cc3cccc(OC)c3)c3ccc(OC)cc23)C(=O)O)cc1 [Example 190, N-{[4-(but-2-ynyloxy)phenyl]sulfonyl}-5-methoxy-1-(3-methoxybenzyl)-2-methyltryptophan], the IC50 falls from 2.24 µM to 0.26 µM (8.6-fold).

CC#CCOc1ccc(S(=O)(=O)N[C@H](Cc2cn(C)c3ccccc23)C(=O)O)cc1 [Example 21, N-{[4-(but-2-ynyloxy)phenyl]sulfonyl}-1-methyl-D-tryptophan] and CC#CCOc1ccc(S(=O)(=O)N[C@@H](Cc2c[nH]c3ccc(F)cc23)C(=O)O)cc1 [Example 3, N-{[4-(but-2-ynyloxy)phenyl]sulfonyl}-5-fluorotryptophan] are within 1.5-fold of each other in IC50: 1.4 µM for the first, 1.56 µM for the second.

CC#CCOc1ccc(S(=O)(=O)N[C@@H](Cc2cn(CCCCC)c3ccc(OC)cc23)C(=O)O)cc1 [Example 68, N-{[4-(but-2-ynyloxy)phenyl]sulfonyl}-5-methoxy-1-pentyltryptophan] and CC#CCOc1ccc(S(=O)(=O)N[C@@H](Cc2cn(Cc3ccc4c(c3)OCO4)c3ccc(OC)cc23)C(=O)O)cc1 [Example 65, 1-(1,3-benzodioxol-5-ylmethyl)-N-{[4-(but-2-ynyloxy)phenyl]sulfonyl}-5-methoxytryptophan] are within 1.5-fold of each other in IC50: 1.32 µM for the first, 1.5 µM for the second.

Compared with CC#CCOc1ccc(S(=O)(=O)N[C@@H](Cc2c(C)n(Cc3cccc(C#N)c3)c3ccc(OC)cc23)C(=O)O)cc1 [Example 204, N-{[4-(but-2-ynyloxy)phenyl]sulfonyl}-1-(3-cyanobenzyl)-5-methoxy-2-methyltryptophan], CC#CCOc1ccc(S(=O)(=O)N[C@@H](Cc2c(C)n(Cc3ccc(OC)cc3)c3ccc(Cl)cc23)C(=O)O)cc1 [Example 91, N-{[4-(but-2-ynyloxy)phenyl]sulfonyl}-5-chloro-1-(4-methoxybenzyl)-2-methyltryptophan] is 2.5-fold lower in IC50: 0.48 µM for the first, 0.19 µM for the second. The second is the more potent here.

Same assay, conditions: TACE FRET assay, catalytic domain of recombinant TACE; read-out: TACE IC50

For CC#CCOc1ccc(S(=O)(=O)N[C@H](Cc2cn(Cc3cccc(C(F)(F)F)c3)c3ccccc23)C(=O)O)cc1 [Example 40, N-{[4-(but-2-ynyloxy)phenyl]sulfonyl}-1-[3-(trifluoromethyl)benzyl]-D-tryptophan], the IC50 was 2.3 µM.

Same assay, conditions: read-out: TACE Inhibition (%)

Going from CC#CCOc1ccc(S(=O)(=O)N[C@@H](Cc2cn(Cc3ccc(OC)cc3)c3ccc(C(=O)O)cc23)C(=O)O)cc1 [Example 109, N-{[4-(but-2-ynyloxy)phenyl]sulfonyl}-5-carboxy-1-(4-methoxybenzyl)tryptophan] to CC#CCOc1ccc(S(=O)(=O)N[C@@H](Cc2cn(Cc3ccc(OC)cc3)c3ccc(Cl)cc23)C(=O)O)cc1 [Example 76, N-{[4-(but-2-ynyloxy)phenyl]sulfonyl}-5-chloro-1-(4-methoxybenzyl)tryptophan], the inhibition at 1 µM rises from 7.93% to 18.3%.

First: CC#CCOc1ccc(S(=O)(=O)N[C@@H](Cc2cn(Cc3cc(F)cc(F)c3)c3ccc(OC)cc23)C(=O)O)cc1 [Example 61, N-{[4-(but-2-ynyloxy)phenyl]sulfonyl}-1-(3,5-difluorobenzyl)-5-methoxytryptophan]
Second: CC#CCOc1ccc(S(=O)(=O)N[C@@H](Cc2cn(Cc3cc(F)cc(F)c3)c3ccc(C(=O)O)cc23)C(=O)O)cc1 [Example 118, N-{[4-(but-2-ynyloxy)phenyl]sulfonyl}-5-carboxy-1-(3,5-difluorobenzyl)tryptophan]
The inhibition at 1 µM of the first is higher: 39.5% for the first, 5.98% for the second.

First: CC#CCOc1ccc(S(=O)(=O)N[C@@H](Cc2c(C)[nH]c3ccccc23)C(=O)O)cc1 [Example 134, N-{[4-(but-2-ynyloxy)phenyl]sulfonyl}-2-methyltryptophan]
Second: CC#CCOc1ccc(S(=O)(=O)N[C@@H](Cc2c(C)n(Cc3ccc(F)cc3)c3ccccc23)C(=O)O)cc1 [Example 154, N-{[4-(but-2-ynyloxy)phenyl]sulfonyl}-1-(4-fluorobenzyl)-2-methyltryptophan]
The inhibition at 1 µM of the first is higher: 64.2% for the first, 52.7% for the second.

Compared with CC#CCOc1ccc(S(=O)(=O)N[C@@H](Cc2c(C)n(Cc3cc(OC)cc(OC)c3)c3ccc(OC)cc23)C(=O)O)cc1 [Example 192, N-{[4-(but-2-ynyloxy)phenyl]sulfonyl}-1-(3,5-dimethoxybenzyl)-5-methoxy-2-methyltryptophan], CC#CCOc1ccc(S(=O)(=O)N[C@@H](Cc2c(C)n(Cc3ccc(OC)cc3)c3ccc(OC)cc23)C(=O)O)cc1 [Example 191, N-{[4-(but-2-ynyloxy)phenyl]sulfonyl}-5-methoxy-1-(4-methoxybenzyl)-2-methyltryptophan] is lower in inhibition at 1 µM: 80% for the first, 77.5% for the second.

First: CC#CCOc1ccc(S(=O)(=O)N[C@@H](Cc2cn(Cc3ccc(F)cc3)c3ccc(OC)cc23)C(=O)O)cc1 [Example 60, N-{[4-(but-2-ynyloxy)phenyl]sulfonyl}-1-(4-fluorobenzyl)-5-methoxytryptophan]
Second: CC#CCOc1ccc(S(=O)(=O)N[C@@H](Cc2cn(Cc3cccc(OC)c3)c3ccc(C#N)cc23)C(=O)O)cc1 [Example 138, N-{[4-(but-2-ynyloxy)phenyl]sulfonyl}-5-cyano-1-(3-methoxybenzyl)tryptophan]
The inhibition at 1 µM of the first is higher: 43.5% for the first, 29.4% for the second.

First: CC#CCOc1ccc(S(=O)(=O)N[C@@H](Cc2c(C)n(Cc3ccc(Cl)cc3)c3ccc(Cl)cc23)C(=O)O)cc1 [Example 96, N-{[4-(but-2-ynyloxy)phenyl]sulfonyl}-5-chloro-1-(4-chlorobenzyl)-2-methyltryptophan]
Second: CC#CCOc1ccc(S(=O)(=O)N[C@@H](Cc2c(C)n(Cc3cccc(OC)c3)c3ccc(Cl)cc23)C(=O)O)cc1 [Example 90, N-{[4-(but-2-ynyloxy)phenyl]sulfonyl}-5-chloro-1-(3-methoxybenzyl)-2-methyltryptophan]
The inhibition at 1 µM of the first is lower: 56.5% for the first, 65.2% for the second.

Compared with CC#CCOc1ccc(S(=O)(=O)N[C@@H](Cc2c(C)n(Cc3ccccc3F)c3ccccc23)C(=O)O)cc1 [Example 152, N-{[4-(but-2-ynyloxy)phenyl]sulfonyl}-1-(2-fluorobenzyl)-2-methyltryptophan], CC#CCOc1ccc(S(=O)(=O)N[C@@H](Cc2c(C)n(Cc3ccc(OC(F)(F)F)cc3)c3ccccc23)C(=O)O)cc1 [Example 151, N-{[4-(but-2-ynyloxy)phenyl]sulfonyl}-2-methyl-1-[4-(trifluoromethoxy)benzyl]tryptophan] is lower in inhibition at 1 µM: 51.7% for the first, 24.3% for the second.

First: CC#CCOc1ccc(S(=O)(=O)N[C@@H](Cc2cn(Cc3ccccc3C)c3ccc(Cl)cc23)C(=O)O)cc1 [Example 72, N-{[4-(but-2-ynyloxy)phenyl]sulfonyl}-5-chloro-1-(2-methylbenzyl)tryptophan]
Second: CC#CCOc1ccc(S(=O)(=O)N[C@@H](Cc2cn(Cc3ccc(C(C)C)cc3)c3ccc(Cl)cc23)C(=O)O)cc1 [Example 82, N-{[4-(but-2-ynyloxy)phenyl]sulfonyl}-5-chloro-1-(4-isopropylbenzyl)tryptophan]
The inhibition at 1 µM of the first is higher: 27.5% for the first, 5.26% for the second.

Compared with CC#CCOc1ccc(S(=O)(=O)N[C@@H](Cc2c(C)n(Cc3ccc(C(C)C)cc3)c3ccc(OC)cc23)C(=O)O)cc1 [Example 202, N-{[4-(but-2-ynyloxy)phenyl]sulfonyl}-1-(4-isopropylbenzyl)-5-methoxy-2-methyltryptophan], CC#CCOc1ccc(S(=O)(=O)N[C@@H](Cc2c(C)n(Cc3cc(F)cc(F)c3)c3ccc(OC)cc23)C(=O)O)cc1 [Example 200, N-{[4-(but-2-ynyloxy)phenyl]sulfonyl}-1-(3,5-difluorobenzyl)-5-methoxy-2-methyltryptophan] is higher in inhibition at 1 µM: 67% for the first, 80.5% for the second.

Compared with CC#CCOc1ccc(S(=O)(=O)N[C@@H](Cc2c(C)n(Cc3cccc(OC(F)(F)F)c3)c3ccc(OC)cc23)C(=O)O)cc1 [Example 194, N-{[4-(but-2-ynyloxy)phenyl]sulfonyl}-5-methoxy-2-methyl-1-[3-(trifluoromethoxy)benzyl]tryptophan], CC#CCOc1ccc(S(=O)(=O)N[C@@H](Cc2c(C)n(C)c3ccc(OC)cc23)C(=O)O)cc1 [Example 208, N-{[4-(but-2-ynyloxy)phenyl]sulfonyl}-5-methoxy-1,2-dimethyltryptophan] is lower in inhibition at 1 µM: 80.8% for the first, 61.8% for the second.

First: CC#CCOc1ccc(S(=O)(=O)N[C@@H](Cc2cn(CC3CCC3)c3ccc(C(=O)O)cc23)C(=O)O)cc1 [Example 131, N-{[4-(but-2-ynyloxy)phenyl]sulfonyl}-5-carboxy-1-(cyclobutylmethyl)tryptophan]
Second: CC#CCOc1ccc(S(=O)(=O)N[C@@H](Cc2cn(Cc3cccnc3)c3ccc(C(=O)O)cc23)C(=O)O)cc1 [Example 125, N-{[4-(but-2-ynyloxy)phenyl]sulfonyl}-5-carboxy-1-(pyridin-3-ylmethyl)tryptophan]
The inhibition at 1 µM of the first is lower: -1.21% for the first, 6.23% for the second.

Work on CC#CCOc1ccc(S(=O)(=O)N[C@@H](Cc2cn(Cc3ccc(OC(F)(F)F)cc3)c3ccc(C#N)cc23)C(=O)O)cc1 [Example 140, N-{[4-(but-2-ynyloxy)phenyl]sulfonyl}-5-cyano-1-[4-(trifluoromethoxy)benzyl]tryptophan] yielded an inhibition at 1 µM of 16%.
